Experimental data: patent publication US10463044B2, “Molecules that inhibit efflux pumps in multi-drug resistant bacteria and uses thereof” (priority 2014, dated 2019)
Values after ≈ are worked out from the molar mass of the structure shown. Like-named read-outs stand apart in the source and are kept apart here.

Tests used:
E. coli = experiment: Minimum inhibitory concentration (MIC), E. coli; format: cell-based, Escherichia coli; conditions: compound alone
From the text: (§1) Among the organisms studied are several strains of the bacterium E. coli.
(§2) Minimal Inhibitory Concentration (MIC) Procedure. […] Streak the E. coli (DH5α or K-12 MG1655) strain on L.B agar plates. […] Prepare initial concentration of all the compounds required. • 5. […] Vortex each test tube for 2-3 seconds. • 9. […] Vortex each test tube for 2-3 seconds. • 11.

B. subtilis = experiment: Minimum inhibitory concentration (MIC), B. subtilis; format: cell-based, Bacillus subtilis; conditions: compound alone
Description: Among the organisms studied are several strains of the bacterium E. coli. […] Experiments were conducted to determine the MIC values for the synthetic amphiphiles known as lariat ethers according to the procedures described in Antimicrobial M07-A9: Methods for Dilution Antimicrobial Susceptibility Tests for Bacteria that Grow Aerobically; Clinical and Laboratory Standards Institute, 2012; Vol. 32, 67 pp. MIC values so determined for several lariat ethers and for several antibiotics are shown in Table 1.

S. cerevisiae = experiment: Minimum inhibitory concentration (MIC), S. cerevisiae; format: cell-based, Saccharomyces cerevisiae; conditions: compound alone
DH5α E. coli [1] = format: cell-based, Escherichia coli; conditions: compound alone
From the text: as §1, §2

DH5α E. coli [2] = experiment: Combination of lariat ether and antibiotic against DH5α E. coli; format: cell-based, Escherichia coli; conditions: 0.4 vol-% DMSO;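 note: E. coli grown in test-tube liquid culture at a fixed total volume of 2 mL, with the amphiphile and the antibiotic both added to each tube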
Description: The volume of water added was between 12 to 0.5 μL. The volume of water added was not constant but the volume of media was changed so that the total volume was kept constant at 2 mL.
(§6) Steps 1-7, described in the MIC procedure, shown in Example 2, were followed. • 2. While the E. coli grew, the appropriate volume of compound was added to each test tube. • 3. Antibiotics were added at the required volume of solution to obtain the desired concentration in each test tube. […] Each test tube was vortexed for 2-3 seconds. • 5. Steps 10-12 from the MIC procedure, shown in Example 2, were then executed.

K-12 E. coli [3] = experiment: MIC, K-12 E. coli; format: cell-based, Escherichia coli; conditions: compound alone
From the text: as §2

K-12 E. coli [4] = experiment: Combination of amphiphile and antibiotic against K-12 E. coli; format: cell-based, Escherichia coli; conditions: amphiphile used 6 μM
Description: as §6

[5] = tested on: tetracycline resistant E. coli (tetA efflux pump); experiment: microbe, parasite or virus in culture; format: cell-based, Escherichia coli; conditions: compound alone; tetracycline resistant E. coli
From the text: as §1
Minimal Inhibitory Concentration (MIC) Procedure. […] Streak the E. coli (DH5α or K-12 MG1655) strain on L.B agar plates. […] Prepare initial concentration of all the compounds required. • 5. […] Vortex each test tube for 2-3 seconds. • 9. […] Vortex each test tube for 2-3 seconds. • 11. […]
(§3) The minimal inhibitory concentrations (MIC) of all the compounds against three bacterial strains were first determined using the microtiter technique as described above. […] Antimicrobial property of hydraphiles is attributed to the disruption of ion homeostasis in bacteria.

[6] = tested on: tetracycline resistant E. coli (tetA efflux pump); format: cell-based, Escherichia coli
Description: (§4) However, the bacterial strains used herein are multidrug resistant and the effect of hydraphiles on the inhibition of resistance mechanism (efflux pumps) was not known. The hydraphiles and the controls were tested next to see whether they could recover the activity of antibiotics against efflux pump expressing Gram-positive and Gram-negative bacteria. The MIC of antibiotics were determined in the presence of ½ [MIC] or ¼ [MIC] of each hydraphile or the controls used.

HEK-293 cells = experiment: Toxicity of lariat ethers to HEK-293 cells (MTT assay); format: cell-based
From the text: The error bars represent the standard error. […]

[7] = tested on: K. pneumoniae (ATCC BAA 2146); experiment: MIC, K. pneumoniae; format: cell-based, Klebsiella pneumoniae; conditions: Klebsiella pneumoniae, BAA2146; read-out: Minimal Inhibitory Concentrations (MIC) K. pneumoniae
From the text: (§5) K. pneumoniae (ATCC BAA 2146; another Gram-negative bacterium) that expresses multiple classes of efflux pumps and NDM-1 gene was also used. This K. pneumoniae is a clinically relevant strain that was isolated from a patient. Gram-positive S. aureus 1199B was used that overexpresses the NorA efflux pump. Since ethidium bromide and norfloxacin are the substrates of efflux pumps, S. aureus 1199B was used to evaluate the activity of efflux pumps in the presence of the hydraphiles and other membrane disruptors.
as §3

[8] = tested on: K. pneumoniae (ATCC BAA 2146); experiment: Recovery of antibiotic activity against K. pneumoniae by hydraphiles; format: cell-based, Klebsiella pneumoniae
Description: as §4

S. aureus 1199B = experiment: MIC, S. aureus 1199B; format: cell-based, Staphylococcus aureus
From the text: as §5, §3

[9] = rifampicin, amphiphile used 8 μM
[10] = rifampicin, amphiphile used 16 μM
[11] = rifampicin, amphiphile used 18 μM
[12] = rifampicin, amphiphile used […] μM
[13] = tetracycline, amphiphile used 4 μM
[14] = tetracycline, amphiphile used 16 μM
[15] = tetracycline, amphiphile used 18 μM
[16] = tetracycline, amphiphile used […] μM

Structure (SMILES): CCCCCCCCCCCN1CCOCCOCCN(CCCCCCCCCCC)CCOCCOCC1 [C11 lariat ether, N,N′-bis(n-undecyl)-4,13-diaza-18-crown-6]
- MIC (μM) E. coli (E. coli): 24 µM (≈ 13.7 µg/mL)
- MIC (μM) B. subtilis (B. subtilis): 9 µM (≈ 5.14 µg/mL)
- MIC (μM) S. cerevisiae (S. cerevisiae): 1.5 µM (≈ 0.856 µg/mL)
- MIC (DH5α E. coli [1]): 24 µM (≈ 13.7 µg/mL)
- Antibiotic Used (μM) in combination (DH5α E. coli [2]; [9]): 15 µM
- Fold Enhancement (DH5α E. coli [2]; [9]): 4 fold
- Antibiotic Used (μM) in combination (DH5α E. coli [2]; [10]): 6 µM
- Fold Enhancement (DH5α E. coli [2]; [10]): 10 fold
- Antibiotic Used (μM) in combination (DH5α E. coli [2]; [11]): 3 µM
- Fold Enhancement (DH5α E. coli [2]; [11]): 20 fold
- Antibiotic Used (μM) in combination (DH5α E. coli [2]; [12]): 6 µM
- Fold Enhancement (DH5α E. coli [2]; [12]): 10 fold
- Antibiotic Used (μM) in combination (DH5α E. coli [2]; [13]): 3 µM
- Fold Enhancement (DH5α E. coli [2]; [13]): 4 fold
- Antibiotic Used (μM) in combination (DH5α E. coli [2]; [14]): 0.25 µM
- Fold Enhancement (DH5α E. coli [2]; [14]): 48 fold
- Antibiotic Used (μM) in combination (DH5α E. coli [2]; [15]): 1.5 µM
- Fold Enhancement (DH5α E. coli [2]; [15]): 8 fold
- Antibiotic Used (μM) in combination (DH5α E. coli [2]; [16]): 1 µM
- Fold Enhancement (DH5α E. coli [2]; [16]): 12 fold
- MIC (K-12 E. coli [3]): 24 µM (≈ 13.7 µg/mL)
- Antibiotic Used (μM) in combination (K-12 E. coli [4]; Rifampicin): 10 µM
- Fold Enhancement (K-12 E. coli [4]; Rifampicin): 2 fold
- Antibiotic Used (μM) in combination (K-12 E. coli [4]; Tetracycline): 2.5 µM
- Fold Enhancement (K-12 E. coli [4]; Tetracycline): ~2 fold
- MIC [5]: 24 µM (≈ 13.7 µg/mL)
- Antibiotic Used (μM) in combination ([6]; amphiphile used 8 μM): 175 µM
- Fold Enhancement ([6]; amphiphile used 8 μM): 5 fold
- Antibiotic Used (μM) in combination ([6]; amphiphile used 16 μM): 87 µM
- Fold Enhancement ([6]; amphiphile used 16 μM): 10 fold
- Antibiotic Used (μM) in combination ([6]; amphiphile used 18 μM): 87 µM
- Fold Enhancement ([6]; amphiphile used 18 μM): 10 fold
- Antibiotic Used (μM) in combination ([6]; amphiphile used […] μM): 87 µM
- Fold Enhancement ([6]; amphiphile used […] μM): 10 fold
- LD50 to HEK-293 (HEK-293 cells): 22 µM

Structure (SMILES): O=C(O)c1cn(C2CC2)c2cc(N3CCNCC3)c(F)cc2c1=O [Ciprofloxacin]
- MIC [7]: 700 µM (≈ 232 µg/mL)
- recovery of ciprofloxacin activity by hydraphiles [8]: 10 fold
- susceptibility of S. aureus 1199B (S. aureus 1199B): resistant

Structure (SMILES): c1ccc(CN2CCOCCOCCN(Cc3ccccc3)CCOCCOCC2)cc1 [Dibenzyl diaza crown, N,N′-Dibenzyl-4,13-diaza-18-crown-6, reference compound]
- Fold Enhancement ([6]; amphiphile/control 128 μM): 1-fold
- [Tetracycline] μM in combination ([6]; amphiphile/control 128 μM): 900 µM
- Fold Enhancement ([6]; amphiphile/control 128 μM, listed as Dibenzyl di-aza-crown): did not show any recovery

Structure (SMILES): CCn1cc(C(=O)O)c(=O)c2cc(F)c(N3CCNCC3)cc21 [norfloxacin]
- susceptibility of S. aureus 1199B (S. aureus 1199B): resistant

Structure (SMILES): CO[C@H]1/C=C/O[C@@]2(C)Oc3c(C)c(O)c4c(O)c(c(/C=N/N5CCN(C)CC5)c(O)c4c3C2=O)NC(=O)/C(C)=C\C=C\[C@H](C)[C@H](O)[C@@H](C)[C@@H](O)[C@@H](C)[C@H](OC(C)=O)[C@@H]1C [rifampicin, reference compound]
- MIC (DH5α E. coli [1]): 60 µM (≈ 49.4 µg/mL)
- MIC (K-12 E. coli [3]; Escherichia coli): 20 µM (≈ 16.5 µg/mL)
